This is an account of results in patent US20240254439A1, “METHOD FOR PREPARING TASTE BUD ORGANOIDS USING ANTERIOR TONGUE EPITHELIAL CELLS” (Korea University Research and Business Foundation, priority 2023, published 2024).

Experiment [1] has as its system taste bud organoids from anterior tongue epithelial tissue. Put plainly: Culture efficiency (growth efficiency, size) of taste bud organoids from anterior tongue epithelial tissue. It is filed as cell-based, mouse. As to conditions: added alone or in combination to basic culture medium supplemented with R-spondin1 and noggin; SAG added under all these conditions (FIG. 2). How it is done: (§1) The tongue was collected from a mouse, and dispase II enzyme (2 mg/mL) (Roche, cat #4942078001) diluted in physiological saline was injected into the space between the epithelium and subepithelial connective tissue to expand the tongue tissue ((2) in FIG. 1), and the expanded tongue tissue was cultured in dispase II enzyme dilution at 37° C. for 30 minutes. The epithelial layer is peeled off from the subepithelial connective tissue to separate the epithelial lamina therefrom, and it is cut into as small an area as possible using tools such as sterilized surgical scissors or a knife in trypsin/EDTA (Gibco, cat #25200072) solution. The finely cut tissues were cultured at 37° C. for 30 minutes. Thereafter, the finely cut tissues are subjected to pressure by continuous pipetting to extract cells from the tissue and form a single cell suspension. The cell pellets obtained by centrifuging this suspension are embedded in an extracellular matrix such as Matrigel at an appropriate ratio.
(§2) All culture media are based on basic culture medium (DMEM/F12+1×GlutaMax+1×HEPES+1×N2 supplement+1×B27 supplement+1×penicillin/streptomycin).
(§3) The single cells embedded in the Matrigel were cultured in differentiation medium 1 (FIRNY+SAG) for 4 days, then cultured for 10 days, while replacing the culture medium with differentiation medium 2 (FIRN+SAG+CHIR_SU5402) and changing the medium culture every 2-3 days.

For experiment [2] the test system is unchanged. Put plainly: Differentiation into taste cells in anterior tongue taste bud organoids, immunofluorescence staining of taste cell markers. It is filed as cell-based, mouse. The procedure:
as §1, §2, §3
In culturing taste bud organoids from anterior tongue epithelial tissue, it was confirmed by immunofluorescence staining that when SAG-containing basic culture medium was treated with CHIR99021 (CHIR), which stimulates the Wnt and Notch signaling pathways, the differentiation efficiency into type 1, type 2 and type 3 taste cells all increased (FIG. 4).
In order to confirm the optimization of the expression efficiency of markers for cells that make up taste buds in organoids and the differentiation efficiency into cells that make up taste buds by components other than CHIR, CHIR was added after the first 3 days of culture, and organoids were cultured in culture medium in which FGF was removed or SU5402 was additionally added. As a result, it was confirmed by immunofluorescence staining that when FGF was removed or SU5402 was additionally input after 3 days of culture, the differentiation efficiency into type 2 and type 3 taste cells increased (FIG. 6).

For “FGF2: fibroblast growth factor 2, protein that regulates cell growth, proliferation and differentiation”, in experiment [1], the “growth efficiency or size of the organoid itself” value (“growth efficiency or size” for short) is given as “no change”. Besides, in experiment [2] (growth factor added to SAG-containing medium with R-spondin1 and noggin, immunofluorescence staining (FIG. 3)), the “differentiation efficiency into taste cells” value is reported as “differentiation efficiency increased”.
Take `Cc1c[nH]c(/C=C2\C(=O)Nc3ccccc32)c1CCC(=O)O` [SU5402]: in experiment [2] (CHIR added after the first 3 days of culture, SU5402 additionally input after 3 days, immunofluorescence staining (FIG. 6)), the “differentiation efficiency into type 2 and type 3 taste cells” value was “increased”.
As to “EGF: growth factor added to the basic culture medium (NSDSECPLSHDGYCLHDGVCMYIEALDKYACNCVVGYIGERCQYRDLKWWELR; UniProt P01133 971-1023, looked up)”, in experiment [1], the “growth efficiency or size” value is “no change”.
Turning to “IGF1: insulin-like growth factor 1, protein that regulates cell growth, proliferation and differentiation”, the “growth efficiency or size” value in experiment [1] is “no change”.
Consider `CNC1CCC(N(Cc2cccc(-c3ccncc3)c2)C(=O)c2sc3ccccc3c2Cl)CC1` (stereo not drawn) [SAG], for which, in experiment [1], the “growth efficiency or size” value was “no change”. Also, the “differentiation into type 1, type 2 and type 3 taste cells” value in experiment [2] (SAG added to basic culture medium with R-spondin1 and noggin, with or without EGF, FGF2, IGF1 (FIG. 3)) is “differentiation into type 1, type 2 and type 3 taste cells was confirmed”.
Regarding `Cc1cnc(-c2cnc(NCCNc3ccc(C#N)cn3)nc2-c2ccc(Cl)cc2Cl)[nH]1` [CHIR99021], the “differentiation efficiency into type 1, type 2 and type 3 taste cells” value in experiment [2] (SAG-containing basic culture medium treated with CHIR99021, immunofluorescence staining (FIG. 4)) is “all increased”. Moreover, in experiment [2] (treated with CHIR on days 3, 5 or 7, immunofluorescence staining (FIG. 5)), the “differentiation efficiency into type 1, type 2 and type 3 taste cells by CHIR-treated time” value was “the earlier treatment with CHIR, the higher the differentiation efficiency”.
